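48-hour exposure; five concentrations; linearly interpolated endpoints. GI50: concentration for 50% inhibition of growth. TGI marks complete inhibition of growth.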
Assays:
Test in all cases: growth of human tumour cells (NCI), 48 h
A498 renal = test system: A498 renal
CAKI-1 renal = test system: CAKI-1 renal
SF-295 CNS = test system: SF-295 CNS
SK-OV-3 ovarian = test system: SK-OV-3 ovarian
HS 578T breast = test system: HS 578T breast
U251 CNS = test system: U251 CNS
HOP-92 NSCLC = test system: HOP-92 NSCLC
786-0 renal = test system: 786-0 renal
NCI-H226 lung = test system: NCI-H226 lung
PC-3 prostate = test system: PC-3 prostate

SMILES	GI50 (A498 renal) [nM]	TGI (A498 renal) [µM]	GI50 (CAKI-1 renal) [µM]	TGI (CAKI-1 renal) [µM]	GI50 (SF-295 CNS) [µM]	TGI (SF-295 CNS) [µM]	GI50 (SK-OV-3 ovarian) [µM]	TGI (SK-OV-3 ovarian) [µM]	GI50 (HS 578T breast) [µM]	TGI (HS 578T breast) [µM]	GI50 (U251 CNS) [µM]	TGI (U251 CNS) [µM]	GI50 (HOP-92 NSCLC) [nM]	TGI (HOP-92 NSCLC) [µM]	GI50 (786-0 renal) [nM]	TGI (786-0 renal) [µM]	GI50 (NCI-H226 lung) [µM]	TGI (NCI-H226 lung) [µM]	GI50 (PC-3 prostate) [µM]	TGI (PC-3 prostate) [µM]
Nc1ncn([C@H]2C[C@H](OP(=O)(O)OC[C@H]3O[C@@H](n4cnc5c(=O)[nH]c(N)nc54)C[C@@H]3O)[C@@H](CO)O2)c(=O)n1	> 100000	> 100	> 100	> 100	> 100	> 100	> 100	> 100	> 100	> 100	> 100	> 100	> 100000	> 100	71800	> 100	> 100	> 100		
COC12OCCN(C)C1=CC(=O)C1(C)N=NCC12 (stereo unspecified)		> 100		> 100		> 100		> 100				> 100		> 100		> 100		> 100		
CC(C)c1ccc(/C=C/c2cc(C(=O)NNC(=O)NC3CCCCC3)nc(=S)[nH]2)cc1		> 100		> 100		> 100		> 100				> 100		> 100		> 100		> 100		
COc1cccc(C2SCc3nc4ccccc4n32)c1 (stereo unspecified)		> 100		> 100		> 100		> 100				> 100		69.8		> 100		> 100		
O=C1c2cc(F)ccc2-c2c1c1ccc([N+](=O)[O-])cc1c(=O)n2CCCBr			27.3	> 100	17.8	> 100	20.2	> 100	> 100	> 100	9.87	> 100			1960	9.31	22.6	> 100	28.7	> 100
Cc1ccc(S(=O)(=O)OCCOCCOCCOCCOCCOS(=O)(=O)c2ccc(C)cc2)cc1		> 100		> 100		> 100		> 100				> 100		99.3		> 100		> 100		
Cn1c(-c2c(N)n(Cc3ccc(F)cc3)c3nc(C#N)c(C#N)nc23)nc2ccccc21			1.36	4.43	7.68	32.5	11	33.8	4.67	26.7	3.18	15	1630	18.4	918	3.59			2.61	> 50
Cc1ccsc1-c1ccc2c(c1)COC2(CCCN(C)C)c1ccc(F)cc1 (stereo unspecified)			2.19	6.05	1.77	3.58	8.16	21.9	2.39	9.07	1.95	4.24	1760	7.44	2540	7.97	8.59	25.3	3.28	13.2
COc1cc(O)c2c(c1)C(=O)C1=C(C2=O)C(O)C[C@@](C)(O)C1 (stereo partly specified)		3.29		14		7.32		17.1				6.34		3.57		9.25		13.2		
COc1ccc2c(c1)[n+]([O-])c(/C(C)=N/NC(=O)c1ccccc1O)c(C)[n+]2[O-]				> 100		> 100		> 100				> 100		> 100		> 100		> 100		
COc1ccc2nc3cccc([N+](=O)[O-])c3c(NC(C)CN(C)C)c2c1 (stereo unspecified)	2090	4.59	2.52	7.19	2.37	10.1	2.62	9.14			0.371	2.17	2380	5.68	2220	7.12	1.75	4.1		6.85
CC(=O)N[C@@H](Cc1ccc(OP(=O)(O)O)cc1)C(=O)N[C@H]1CCC(=O)N2CCC[C@@H](C(=O)NCc3ccccc3)N2C1=O	> 25000	> 25	> 25	> 25	> 25	> 25	> 25	> 25	> 25	> 25	> 25	> 25			> 25000	> 25	> 25	> 25	> 25	> 25
O=C1C(c2ccccc2)=C(c2ccccc2)C(c2ccc(Sc3ccc(C4=C(c5ccccc5)C(=O)C(c5ccccc5)=C4c4ccccc4)cc3)cc2)=C1c1ccccc1		> 100		> 100		> 100		> 100				> 100		> 100		> 100		> 100		
COC(=O)C1[C@H](c2ccc3c(c2)OCO3)OC(=O)[C@]1(C(=O)OC)C(=O)c1ccc(OC)c(OC)c1 (stereo partly specified)		> 100		> 100		> 100		> 100				> 100		> 100		> 100		> 100		
O=C(CSSCC(=O)Nc1ccc(Br)cc1)Nc1ccc(Br)cc1		34.1		50.3		28		40				27.6		34.1		31.4		31.7		
O=[N+]([O-])C=C1c2ccccc2-c2ccccc21		34.6		24.5		33.5										30.3				
COc1cc(/C=C/C(=O)c2c(-c3ccc(F)cc3)nc3sc(C)nn23)cc(OC)c1OC	2300	7.23	3.27	18.2	4.03	15.9	2.99	8.91	5.39	> 100	2.01	5.45	1600	8.64	3310	10.6	2.46	8.3		
CCOC(=O)CN(c1ccccc1)c1nc(=[N+](C)C)ss1		> 100		87.8				> 100				41.5				> 100		75.4		
NCCSC(c1ccccc1)(c1ccccc1)c1ccccc1	1030	8.39	3.51	16.1	0.967	2.76	0.512	12.5	1.09	5.29	0.373	1.72			1220	12.1	4.79	22.7	1.36	11.5
CC(C)=NNC(=S)NC12CC3CC(CC(C3)C1)C2		> 100		> 100		> 100		> 100				> 100		> 100		> 100		> 100		

SMILES	GI50 (A498 renal) [nM]	TGI (A498 renal) [µM]	GI50 (CAKI-1 renal) [µM]	TGI (CAKI-1 renal) [µM]	GI50 (SF-295 CNS) [µM]	TGI (SF-295 CNS) [µM]	GI50 (SK-OV-3 ovarian) [µM]	TGI (SK-OV-3 ovarian) [µM]	GI50 (HS 578T breast) [µM]	TGI (HS 578T breast) [µM]	GI50 (U251 CNS) [µM]	TGI (U251 CNS) [µM]	GI50 (HOP-92 NSCLC) [nM]	TGI (HOP-92 NSCLC) [µM]	GI50 (786-0 renal) [nM]	TGI (786-0 renal) [µM]	GI50 (NCI-H226 lung) [µM]	TGI (NCI-H226 lung) [µM]	GI50 (PC-3 prostate) [µM]	TGI (PC-3 prostate) [µM]
N#CCc1nnc(N)o1				> 100		> 100		> 100				> 100		> 100		> 100		> 100		
CC[PH+](CC)CC.CC[PH+](CC)CC.[Au]			6.8	13.5	13.5	26.9	20.9	35.2			8.21	24.3	7430	15.2	7350	19.7	18.2	37.5		
CC1=C(C(=O)CC(=O)C(=O)Nc2ccc(C)c(C)c2)Sc2ccccc2N1		> 100		> 100		> 100		> 100				> 100		> 100		> 100		> 100		
O=C(O)Cc1ccc(N=Nc2c(O)c(C(=O)O)cc3ccccc23)cc1				> 100		> 100		> 100		> 100		> 100		> 100		> 100		> 100		> 100
CCOC(=O)C1SC(=Nc2ccc(Cl)cc2Cl)N=C1C (stereo unspecified)		> 100		> 100		> 100						> 100		62.3		> 100		> 100		
NC(N)=N/N=C/c1c(-c2cccnc2)nc2sc(Cl)cn12	20600	37.6	20.5	43.4	13.8	28.1			22.3	46.6	13.3	26.1			17000	46.6	13.4	28	15.2	28.5
CN1C(=O)C2(c3ccccc31)C1CC3C(CO1)C1C2C3(CO)CN1C#N (stereo unspecified)				> 100		> 100		> 100		> 100		> 100		> 100		> 100		> 100		> 100
O=C1CC(N2C(=O)/C(=C/C(Cl)=C\c3ccc([N+](=O)[O-])cc3)SC2=S)C(=O)N1c1ccc(O)cc1 (stereo unspecified)			1.15	2.42	1.31	2.7	2.99	9.26	2.8	12.6	0.597	2.21	1620	3.72	1230	4.81	2.41	6.82	0.906	2.87
CN(C)c1ccccc1[CH2][Ga]([Cl])[CH2]c1ccccc1N(C)C			1.58	3.94	0.964	2.48	1.71	3.8	1.28	5.79	1.16	2.41	416	1.58	1380	2.8	0.537	1.95	1.74	3.63
CN(C)CCNC(=O)c1ccc2oc3cc4ccccc4c(=O)n3c2c1			17.1	55.2	28	> 100	63.8	> 100			34.3	> 100	> 100000	> 100	71600	> 100			61.6	> 100
O=C1C(=O)N(c2ccc(Cl)cc2)C(=O)C(=Nc2cccc3c(=O)[nH][nH]c(=O)c23)C1c1nc2ccccc2o1 (stereo unspecified)		> 100		> 100		> 100		> 100				> 100		> 100		> 100		> 100		
O=c1cccc2n1CC1CNC[C@H]2C1				> 100		> 100		> 100		> 100		> 100		> 100		> 100				> 100
CN(/N=C\c1ccnc2ccccc12)c1ccccc1		54.6		91.7		71.5		66				84.9		50		37.7				
Cc1ccc(C2=Nc3ccccc3S(=O)C(c3ccc4c(c3)OCO4)C2)cc1 (stereo unspecified)		51.7		> 100		> 100		91.3				31.1				44		> 100		
Cc1c2c(nn1-c1ccc(S(=O)(=O)NC(=S)NC(=O)c3ccccc3)cc1)-c1ccccc1CC2			16.1	51.9	17.4	48.6	> 100	> 100			43.3	> 100	> 100000	> 100	> 100000	> 100	60.2	> 100	42	> 100
C=C1CC2(CCS(=O)(=O)c3ccccc32)OC1=O (stereo unspecified)		31.5		3.3		45		44.1				26		14.2		15.7		28.9		
c1ccc2c(CNCCCCCCCCNCc3cccc4ccccc34)cccc2c1		28.4		5.01		3.32		30.9				3.13		9.92		3.31		24.5		
O=C(O)CN(c1ccc(F)cc1)S(=O)(=O)c1ccccc1		> 100		> 100		> 100		> 100				> 100		> 100		> 100		> 100		
OCC1CCCC1O (stereo unspecified)		> 100		> 100		> 100						> 100		> 100		> 100		> 100		> 100
